Reference: ChEMBL document CHEMBL4507266, “Data for DCP probe BAY-784” (2021)

Assays:
[1] = target: Calcium/calmodulin-dependent protein kinase type 1D (Homo sapiens) (UniProt Q8IU85); settings: Compound concentration 1000.0 nM
[2] = target: MAP kinase-interacting serine/threonine-protein kinase 2 (Homo sapiens) (UniProt Q9HBH9); settings: Compound concentration 1000.0 nM
[3] = target: Serine/threonine-protein kinase ULK2 (Homo sapiens) (UniProt Q8IYT8); settings: Compound concentration 1000.0 nM
[4] = target: Kappa-type opioid receptor (Homo sapiens) (UniProt P41145); settings: Compound concentration 10.0 uM
[5] = target: Mitogen-activated protein kinase kinase kinase 14 (Homo sapiens) (UniProt Q99558); settings: Compound concentration 1000.0 nM
[6] = target: Kappa-type opioid receptor (Homo sapiens) (UniProt P41145); settings: Compound concentration 10.0 uM; remark: listed apart in the source
[7] = target: Calcium/calmodulin-dependent protein kinase type 1 (Homo sapiens) (UniProt Q14012); settings: Compound concentration 1000.0 nM
[8] = system: Epidermal growth factor receptor (Homo sapiens), P00533 [G719S]; settings: Compound concentration 1000.0 nM
[9] = system: Tyrosine-protein kinase ABL1 (Homo sapiens), P00519 [Q252H]; settings: Compound concentration 1000.0 nM
[10] = target: Proto-oncogene tyrosine-protein kinase ROS (Homo sapiens) (UniProt P08922); settings: Compound concentration 1000.0 nM
[11] = target: Activin receptor type-1-like (Homo sapiens) (UniProt P37023); settings: Compound concentration 1000.0 nM
[12] = target: Atypical kinase COQ8A, mitochondrial (Homo sapiens) (UniProt Q8NI60); settings: Compound concentration 1000.0 nM
[13] = target: Macrophage colony-stimulating factor 1 receptor (Homo sapiens) (UniProt P07333); settings: Compound concentration 1000.0 nM
[14] = target: Phosphatidylinositol 4,5-bisphosphate 3-kinase catalytic subunit gamma isoform (Homo sapiens) (UniProt P48736); settings: Compound concentration 1000.0 nM
[15] = target: Rhodopsin kinase GRK7 (Homo sapiens) (UniProt Q8WTQ7); settings: Compound concentration 1000.0 nM
[16] = target: Tyrosine-protein kinase Fes/Fps (Homo sapiens) (UniProt P07332); settings: Compound concentration 1000.0 nM
[17] = system: Tyrosine-protein kinase ABL1 (Homo sapiens), P00519 [H396P]; settings: Compound concentration 1000.0 nM
[18] = target: Serine/threonine-protein kinase Nek10 (Homo sapiens) (UniProt Q6ZWH5); settings: Compound concentration 1000.0 nM
[19] = target: Rhodopsin kinase GRK1 (Homo sapiens) (UniProt Q15835); settings: Compound concentration 1000.0 nM
[20] = target: Death-associated protein kinase 2 (Homo sapiens) (UniProt Q9UIK4); settings: Compound concentration 1000.0 nM
[21] = target: Cyclin-dependent kinase 4 (Homo sapiens) (UniProt P11802); settings: Compound concentration 1000.0 nM
[22] = target: ALK tyrosine kinase receptor (Homo sapiens) (UniProt Q9UM73); settings: Compound concentration 1000.0 nM
[23] = target: Tyrosine-protein kinase Lck (Homo sapiens) (UniProt P06239); assay: Inhibition of Protein Tyrosine Kinase, LCK at 10 µM in the Eurofins-Panlabs enzyme assay (Eurofins_assay_176020); settings: Compound concentration 10.0 uM
[24] = target: Serine/threonine-protein kinase 35 (Homo sapiens) (UniProt Q8TDR2); settings: Compound concentration 1000.0 nM
[25] = target: Neuropeptide Y receptor type 1 (Homo sapiens) (UniProt P25929); assay: Inhibition of Neuropeptide Y Y1 at 10 µM in the Eurofins-Panlabs radioligand binding assay (Eurofins_assay_257010); settings: Compound concentration 10.0 uM
[26] = target: BMP-2-inducible protein kinase (Homo sapiens) (UniProt Q9NSY1); settings: Compound concentration 1000.0 nM
[27] = target: T1, D(4) dopamine receptor (Homo sapiens) (UniProt P21917); assay: Inhibition of Dopamine D4.2 at 10 µM in the Eurofins-Panlabs radioligand binding assay (Eurofins_assay_219900); parameters: ligand concentration 0.5 nM; settings: Compound concentration 10.0 uM
T1 sequence (whole entry): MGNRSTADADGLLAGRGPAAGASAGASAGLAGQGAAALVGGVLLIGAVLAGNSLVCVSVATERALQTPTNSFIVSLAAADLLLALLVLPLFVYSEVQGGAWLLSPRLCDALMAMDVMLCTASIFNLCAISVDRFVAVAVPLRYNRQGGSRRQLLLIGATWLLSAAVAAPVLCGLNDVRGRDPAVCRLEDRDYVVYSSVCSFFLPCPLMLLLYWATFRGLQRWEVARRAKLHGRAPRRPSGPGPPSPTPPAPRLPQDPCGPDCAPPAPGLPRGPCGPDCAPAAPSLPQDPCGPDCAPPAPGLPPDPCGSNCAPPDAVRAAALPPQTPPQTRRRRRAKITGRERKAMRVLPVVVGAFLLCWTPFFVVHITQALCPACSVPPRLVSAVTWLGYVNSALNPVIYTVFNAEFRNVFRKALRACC

[28] = target: Dual specificity protein kinase CLK2 (Homo sapiens) (UniProt P49760); settings: Compound concentration 1000.0 nM
[29] = target: Mitogen-activated protein kinase kinase kinase 20 (Homo sapiens) (UniProt Q9NYL2); settings: Compound concentration 1000.0 nM
[30] = system: Receptor-type tyrosine-protein kinase FLT3 (Homo sapiens), P36888 [R834Q]; settings: Compound concentration 1000.0 nM
[31] = target: Cyclin-dependent kinase 3 (Homo sapiens) (UniProt Q00526); settings: Compound concentration 1000.0 nM
[32] = target: Cyclin-dependent kinase 7 (Homo sapiens) (UniProt P50613); settings: Compound concentration 1000.0 nM
[33] = target: Serine/threonine-protein kinase tousled-like 2 (Homo sapiens) (UniProt Q86UE8); settings: Compound concentration 1000.0 nM
[34] = system: Receptor-type tyrosine-protein kinase FLT3 (Homo sapiens), P36888 [UNDEFINED MUTATION]; settings: Compound concentration 1000.0 nM
[35] = target: Wee1-like protein kinase (Homo sapiens) (UniProt P30291); settings: Compound concentration 1000.0 nM
[36] = target: Non-receptor tyrosine-protein kinase TYK2 (Homo sapiens) (UniProt P29597); settings: Compound concentration 1000.0 nM
[37] = species: Mus musculus; assay: Inhibition of Phorbol Ester at 10 µM in the Eurofins-Panlabs radioligand binding assay (Eurofins_assay_264500); parameters: ligand concentration 3 nM; settings: Compound concentration 10.0 uM
[38] = target: Glutamate receptor 2 (Homo sapiens) (UniProt P42262); settings: Rattus norvegicus; Compound concentration 10.0 uM

Sequence of Kappa-type opioid receptor (Homo sapiens) (P41145 whole entry): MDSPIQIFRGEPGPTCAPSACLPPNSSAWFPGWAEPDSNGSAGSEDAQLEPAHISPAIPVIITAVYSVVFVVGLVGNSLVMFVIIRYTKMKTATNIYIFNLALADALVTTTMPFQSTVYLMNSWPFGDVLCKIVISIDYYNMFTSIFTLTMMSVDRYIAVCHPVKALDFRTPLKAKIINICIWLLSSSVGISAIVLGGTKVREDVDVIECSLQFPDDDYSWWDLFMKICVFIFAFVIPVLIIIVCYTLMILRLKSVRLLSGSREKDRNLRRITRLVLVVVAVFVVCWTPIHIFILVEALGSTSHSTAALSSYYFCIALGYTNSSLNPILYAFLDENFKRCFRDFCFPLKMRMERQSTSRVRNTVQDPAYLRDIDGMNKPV
Sequence of Activin receptor type-1-like (Homo sapiens) (P37023 whole entry): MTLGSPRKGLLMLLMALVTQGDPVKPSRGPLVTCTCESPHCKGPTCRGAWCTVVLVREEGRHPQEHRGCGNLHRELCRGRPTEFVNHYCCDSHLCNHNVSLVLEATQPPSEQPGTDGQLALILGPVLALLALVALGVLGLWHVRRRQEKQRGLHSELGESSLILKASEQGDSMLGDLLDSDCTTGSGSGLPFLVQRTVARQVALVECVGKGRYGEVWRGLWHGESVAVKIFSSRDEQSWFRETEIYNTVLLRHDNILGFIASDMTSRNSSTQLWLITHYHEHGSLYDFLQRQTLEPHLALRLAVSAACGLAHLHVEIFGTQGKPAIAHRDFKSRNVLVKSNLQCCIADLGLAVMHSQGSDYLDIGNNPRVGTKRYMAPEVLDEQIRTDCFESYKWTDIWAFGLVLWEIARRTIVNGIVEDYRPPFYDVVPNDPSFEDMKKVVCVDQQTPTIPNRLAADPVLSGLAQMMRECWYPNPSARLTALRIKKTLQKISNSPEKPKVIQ
Sequence of Death-associated protein kinase 2 (Homo sapiens) (Q9UIK4 whole entry, looked up): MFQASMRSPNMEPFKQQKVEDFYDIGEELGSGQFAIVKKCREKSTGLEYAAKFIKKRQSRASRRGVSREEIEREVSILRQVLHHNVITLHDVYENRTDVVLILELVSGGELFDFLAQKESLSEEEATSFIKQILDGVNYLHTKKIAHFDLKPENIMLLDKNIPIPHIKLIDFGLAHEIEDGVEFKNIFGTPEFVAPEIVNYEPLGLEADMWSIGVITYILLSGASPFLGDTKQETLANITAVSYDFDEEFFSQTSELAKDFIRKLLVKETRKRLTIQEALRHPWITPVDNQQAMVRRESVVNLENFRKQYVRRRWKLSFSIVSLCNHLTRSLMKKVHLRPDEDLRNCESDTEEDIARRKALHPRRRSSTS
Sequence of BMP-2-inducible protein kinase (Homo sapiens) (Q9NSY1 whole entry, looked up): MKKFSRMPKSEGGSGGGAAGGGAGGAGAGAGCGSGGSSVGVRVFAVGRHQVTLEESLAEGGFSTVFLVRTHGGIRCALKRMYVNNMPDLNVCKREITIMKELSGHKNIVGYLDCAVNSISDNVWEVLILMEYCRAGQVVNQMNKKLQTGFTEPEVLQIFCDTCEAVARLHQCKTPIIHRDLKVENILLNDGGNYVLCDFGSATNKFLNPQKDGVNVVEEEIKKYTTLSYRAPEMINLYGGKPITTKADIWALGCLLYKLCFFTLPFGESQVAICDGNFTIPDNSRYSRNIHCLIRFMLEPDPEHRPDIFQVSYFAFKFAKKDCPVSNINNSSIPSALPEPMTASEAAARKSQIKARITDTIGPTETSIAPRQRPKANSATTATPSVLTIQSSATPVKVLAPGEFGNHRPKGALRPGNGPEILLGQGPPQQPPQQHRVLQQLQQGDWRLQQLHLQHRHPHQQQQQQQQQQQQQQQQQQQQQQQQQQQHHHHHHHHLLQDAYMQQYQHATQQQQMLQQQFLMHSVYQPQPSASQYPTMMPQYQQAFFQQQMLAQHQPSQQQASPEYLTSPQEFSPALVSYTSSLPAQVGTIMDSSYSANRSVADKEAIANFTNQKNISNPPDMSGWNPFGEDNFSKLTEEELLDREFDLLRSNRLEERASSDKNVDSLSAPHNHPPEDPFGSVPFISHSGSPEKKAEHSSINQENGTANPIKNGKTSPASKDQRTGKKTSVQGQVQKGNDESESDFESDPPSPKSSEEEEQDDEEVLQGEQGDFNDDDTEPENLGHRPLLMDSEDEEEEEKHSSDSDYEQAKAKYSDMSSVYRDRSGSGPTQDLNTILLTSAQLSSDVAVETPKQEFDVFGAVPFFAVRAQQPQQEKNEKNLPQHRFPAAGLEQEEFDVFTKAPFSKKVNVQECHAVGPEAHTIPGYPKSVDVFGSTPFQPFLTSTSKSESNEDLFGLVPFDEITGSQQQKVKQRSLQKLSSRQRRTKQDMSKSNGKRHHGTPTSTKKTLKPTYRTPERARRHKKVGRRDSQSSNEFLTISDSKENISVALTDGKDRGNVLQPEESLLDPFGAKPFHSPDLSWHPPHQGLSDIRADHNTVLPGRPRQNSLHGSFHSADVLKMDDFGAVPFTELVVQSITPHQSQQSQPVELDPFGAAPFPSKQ
Sequence of Serine/threonine-protein kinase tousled-like 2 (Homo sapiens) (Q86UE8 whole entry, looked up): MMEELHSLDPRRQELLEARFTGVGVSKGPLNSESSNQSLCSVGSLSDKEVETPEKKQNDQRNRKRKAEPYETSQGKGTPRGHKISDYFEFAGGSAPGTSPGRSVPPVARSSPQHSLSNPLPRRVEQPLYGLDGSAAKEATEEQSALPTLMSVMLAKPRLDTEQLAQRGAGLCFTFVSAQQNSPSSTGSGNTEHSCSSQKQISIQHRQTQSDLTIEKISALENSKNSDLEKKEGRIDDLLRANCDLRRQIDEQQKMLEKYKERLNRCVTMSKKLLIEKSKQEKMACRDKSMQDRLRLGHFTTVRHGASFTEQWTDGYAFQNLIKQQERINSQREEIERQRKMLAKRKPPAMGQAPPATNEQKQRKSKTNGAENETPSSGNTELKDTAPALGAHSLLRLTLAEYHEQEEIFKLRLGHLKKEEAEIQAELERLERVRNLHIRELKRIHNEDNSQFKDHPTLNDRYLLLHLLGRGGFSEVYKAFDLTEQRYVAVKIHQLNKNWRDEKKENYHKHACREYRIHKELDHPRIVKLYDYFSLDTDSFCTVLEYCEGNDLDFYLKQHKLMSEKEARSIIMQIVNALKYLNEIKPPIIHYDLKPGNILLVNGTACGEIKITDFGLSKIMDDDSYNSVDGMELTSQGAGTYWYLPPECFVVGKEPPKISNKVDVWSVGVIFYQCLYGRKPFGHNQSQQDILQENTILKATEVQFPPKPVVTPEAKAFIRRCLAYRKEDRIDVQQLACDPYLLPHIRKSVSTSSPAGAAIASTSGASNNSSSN
Sequence of Mitogen-activated protein kinase kinase kinase 14 (Homo sapiens) (Q99558 whole entry, looked up): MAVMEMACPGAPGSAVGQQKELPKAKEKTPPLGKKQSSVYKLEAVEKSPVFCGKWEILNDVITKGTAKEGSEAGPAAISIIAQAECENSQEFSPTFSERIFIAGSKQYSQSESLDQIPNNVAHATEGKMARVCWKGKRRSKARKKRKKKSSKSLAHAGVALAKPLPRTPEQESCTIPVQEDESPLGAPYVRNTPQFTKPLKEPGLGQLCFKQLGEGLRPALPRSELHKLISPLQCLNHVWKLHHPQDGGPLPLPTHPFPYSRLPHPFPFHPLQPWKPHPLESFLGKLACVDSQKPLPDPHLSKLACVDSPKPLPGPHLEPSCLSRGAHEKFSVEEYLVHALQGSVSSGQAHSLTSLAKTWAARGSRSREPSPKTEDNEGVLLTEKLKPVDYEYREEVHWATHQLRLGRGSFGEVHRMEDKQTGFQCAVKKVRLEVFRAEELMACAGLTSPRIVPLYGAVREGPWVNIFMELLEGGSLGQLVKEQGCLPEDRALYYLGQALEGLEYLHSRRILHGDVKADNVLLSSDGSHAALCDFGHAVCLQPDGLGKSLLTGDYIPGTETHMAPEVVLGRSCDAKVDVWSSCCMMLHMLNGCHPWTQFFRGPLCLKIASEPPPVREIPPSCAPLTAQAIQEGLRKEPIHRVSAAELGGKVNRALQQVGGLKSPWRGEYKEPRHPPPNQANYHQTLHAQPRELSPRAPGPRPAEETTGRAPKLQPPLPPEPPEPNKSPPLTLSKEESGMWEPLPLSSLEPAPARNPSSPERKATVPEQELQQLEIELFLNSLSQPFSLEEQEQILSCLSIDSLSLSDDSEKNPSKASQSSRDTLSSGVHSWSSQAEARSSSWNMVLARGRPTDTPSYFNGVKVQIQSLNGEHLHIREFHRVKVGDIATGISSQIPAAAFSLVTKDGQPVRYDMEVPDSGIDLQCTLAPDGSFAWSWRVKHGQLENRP
Sequence of Tyrosine-protein kinase Fes/Fps (Homo sapiens) (P07332 whole entry): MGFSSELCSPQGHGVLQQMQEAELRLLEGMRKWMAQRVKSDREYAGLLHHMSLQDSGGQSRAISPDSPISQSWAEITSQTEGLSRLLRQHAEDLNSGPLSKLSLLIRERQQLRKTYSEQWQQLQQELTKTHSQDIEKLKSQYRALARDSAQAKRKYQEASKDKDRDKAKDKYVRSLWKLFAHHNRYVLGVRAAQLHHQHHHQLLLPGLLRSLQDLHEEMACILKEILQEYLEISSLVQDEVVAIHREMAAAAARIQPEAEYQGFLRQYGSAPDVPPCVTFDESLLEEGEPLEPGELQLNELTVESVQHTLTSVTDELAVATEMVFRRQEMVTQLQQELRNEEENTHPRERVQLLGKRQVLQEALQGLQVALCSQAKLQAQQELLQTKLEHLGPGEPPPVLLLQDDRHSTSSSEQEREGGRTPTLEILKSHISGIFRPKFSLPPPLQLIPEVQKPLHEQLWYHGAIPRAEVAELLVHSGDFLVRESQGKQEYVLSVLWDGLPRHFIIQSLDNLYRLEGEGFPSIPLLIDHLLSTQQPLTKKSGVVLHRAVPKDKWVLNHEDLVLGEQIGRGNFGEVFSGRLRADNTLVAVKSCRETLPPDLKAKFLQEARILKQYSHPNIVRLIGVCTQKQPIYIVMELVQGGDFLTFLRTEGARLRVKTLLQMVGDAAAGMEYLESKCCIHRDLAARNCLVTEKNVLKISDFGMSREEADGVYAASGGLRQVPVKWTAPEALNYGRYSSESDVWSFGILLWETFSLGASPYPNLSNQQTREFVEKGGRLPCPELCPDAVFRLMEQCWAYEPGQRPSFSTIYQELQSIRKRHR

SMILES	residual activity [1] [%]	residual activity [2] [%]	residual activity [3] [%]	residual activity [5] [%]	inhibition [6] [%]	residual activity [7] [%]	residual activity [8] [%]	residual activity [9] [%]	residual activity [10] [%]	residual activity [11] [%]	residual activity [12] [%]	residual activity [13] [%]	residual activity [14] [%]	residual activity [15] [%]	residual activity [16] [%]	residual activity [17] [%]	residual activity [18] [%]	residual activity [19] [%]	residual activity [20] [%]	residual activity [21] [%]	further results
O=C(NCc1ncc(C(F)(F)F)cc1Cl)c1ccc2c(c1)C1(CCS(=O)(=O)CC1)[C@H](C1CC1)N2S(=O)(=O)c1ccc(F)cc1 [BAY-784]	85	83	58	100	14.4	84	92	100	100	98	96	100	82	80	100	100	94	80	99	86	inhibition [4]: 7%; residual activity [22]: 98%; inhibition [23]: 0%; residual activity [24]: 100%; inhibition [25]: 17%; residual activity [26]: 96%; inhibition [27]: 11%; residual activity [28]: 100%; residual activity [29]: 100%; residual activity [30]: 90%; residual activity [31]: 100%; residual activity [32]: 64%; residual activity [33]: 100%; residual activity [34]: 76%; residual activity [35]: 82%; residual activity [36]: 79%; inhibition [37]: 1%; inhibition [38]: 2%
O=C(NCc1ncc(C(F)(F)F)cc1Cl)c1ccc2c(c1)C1(CCS(=O)(=O)CC1)[C@@H](C1CC1)N2S(=O)(=O)c1ccc(F)cc1 [BAY-786]	99	76	54	71	4.54	97	86	100	100	72	90	87	95	65	93	100	83	79	90	82	residual activity [22]: 73%; residual activity [24]: 93%; residual activity [26]: 76%; residual activity [28]: 82%; residual activity [29]: 92%; residual activity [30]: 84%; residual activity [31]: 41%; residual activity [32]: 56%; residual activity [33]: 100%; residual activity [34]: 58%; residual activity [35]: 100%; residual activity [36]: 73%
